Data published in patent US20100239501A1, “GENE SENSITIVE TO BONE/JOINT DISEASE AND USE THEREOF” (RIKEN, priority 2007, published 2010).
Values belong to the molecule of their own block, whether it stands above or below them.

Experiments:
[1] = test system: EDG2; assay: EDG2 knockdown by siRNA in LPA-stimulated HFLS-OA; type: cell-based, human; conditions: n=4
Protocol: To analyze the involvement of EDG2 in the LPA-induced inflammatory cytokine raising reaction in human OA synovial cells, obtained in Example 17, an investigation using an siRNA was performed. The method used is described below. An siRNA against EDG2 was designed by utilizing an siRNA design support system available from the Takara Bio Web site (http://bio.takara.co.jp). Synthesis of the siRNA was outsourced to Takara Bio. The control siRNA used was such that the sequence of an siRNA against asporin was scrambled. OA patient-derived fibroblast-like synovial cells (HFLS-OA) were purchased from Cell application Co. The HFLS-OA was cultured using the attached Synoviocyte growth medium. The number of passages for the cells used was 4 or 5. The HFLS-OA was seeded to a 24-well plate at a ratio of 1×10^5 cells/well, and cultured using the attached Synoviocyte growth medium. The following day, the siRNA against EDG2 was introduced into the HFLS-OA to obtain a final concentration of 11 nM, using the Trans-IT-TKO transfection regent (Mirus Co.), according to the attached protocol. […] Twelve hours after the medium replacement, the cells were stimulated with 10 μM LPA; 2 hours later, total RNA was extracted using ISOGEN (Nippon Gene), and the amount of the IL6 gene expressed was quantified by a method in accordance with Example 10 (n=4).

[2] = test system: synovial cell line E11 cells; assay: EDG2 gene expression in PMA-stimulated E11 cells (quantitative real-time PCR); type: cell-based, human; conditions: PMA 10 ng/ml, from 2 hours to 12 hours after addition, n=4
Protocol: To analyze the expression of the four LPA receptors examined in Example 10 in joint tissue, an expression quantitation analysis by quantitative real-time PCR was performed on articular cartilages and synovial tissues of knee OA patients. The method used was in accordance with Example 10. Total RNA was extracted from each tissue (articular cartilage n=4, synovial membrane n=3) using Isogen (Nippon Gene), and reverse transcription was performed on 500 ng of total RNA using Multiscribe reverse transcriptase (Applied biosystems) and a random hexamer, whereby a cDNA was obtained. Quantitation of the LPA receptor genes was performed using QuantiTect STBR Green PCR (Qiagen) on the ABI PRISM 7700 sequence detection system (Applied biosystems) as directed in the documentation attached. The number of copies of each gene was calculated using a working curve. The amount of each gene was standardized by being divided by the number of copies of the G3PDH gene. A Toyobo product was used as the primer for the G3PDH gene. […] The amount of the EDG2 gene expressed was higher in synovial membrane at a level about 10 times as high as in articular cartilage. […]
The method used is described below. […] In these total RNAs, the amount expressed of the EDG2 gene relative to G3PDH was measured in accordance with the method described in Example 11. […]

[3] = test system: EDG2 gene transcription activity (i-EDG2-09 region); assay: i-EDG2-09 luciferase reporter assay in PMA-stimulated E11 cells; type: cell-based, human; conditions: both constructs (G allele and A allele), 10 ng/ml PMA, 5 hours after stimulation
Text: An AP-1-binding motif described in a report by Duncliffe et al. [Immunity. […] 28; 276(52):48871-8.] is present 11 to 16 by upstream. The existence of a transcriptional factor-binding motif where AP-1 and NFAT are located in tandem is known in a plurality of genes [Macian F, Lopez-Rodriguez C and Rao A., Oncogene. 2001 Apr. 30; 20(19):2476-89. Review.]. Meanwhile, in the surrounding sequence, including i-EDG2-12, no distinct transcriptional factor binding sequence was found. […] Oligonucleotides (sense strand and antisense strand) wherein 4 bp at the restriction endonuclease NheI adhesion end is added on the 5′ side of a region centering at i-EDG2-09, and comprising the AP-1 and NFAT-binding motifs (a region at −2809 to −2839 from the transcription initiation point of EDG2), and 4 bp at the XbaI adhesion end is added on the 3′ side, were prepared for both alleles of i-EDG2-09 (G or A). After these oligonucleotides were converted to double-stranded DNAs for each allele, reporter constructs wherein each allele was integrated in tandem 5 times in the NheI site of the pGL3-promoter vector (Promega), which is a luciferase reporter vector, while retaining the orientation were prepared for G allele and A allele. […] Five hours after the stimulation, the cells were solubilized, and luciferase activity was measured using the PicaGene Dual SeaPansy System (Toyo Ink). […]

[4] = test system: transcriptional factor AP-1; assay: AP-1 cis-reporter luciferase assay in PMA-stimulated E11 cells; type: cell-based, human; conditions: 0.1, 1 and 10 ng/ml PMA, 24 hours after stimulation, n=2
Text: Because the EDG2 gene is an LPA receptor that is dominant in OA synovial membrane, it was decided to perform a functional analysis of OA susceptibility polymorphs using synovial cells. E11 cells are a cell line established by immortalizing fibroblast-like cells from a rheumatoid arthritis patient synovial membrane with simian SV40 large T antigen (Abe et al, J Rheumatol. 1997 March; 24(3):420-9.). In the 5′-flanking region of EDG2, where i-EDG2-09 and 12 are present, an AP-1-binding motif is present. […] The method used is described below. The E11 cells were cultured using Dulbecco's Modified Eagle's Medium (DMEM, Sigma) containing 10% fetal bovine serum (FBS), antibiotics (100 U/ml penicillin G and 100 μg/ml streptomycin) and L-glutamine ([…]). On the day before the transfection, the E11 cells were seeded to a 24-multiwell plate to obtain a cell density of 5×10^4 cells/well. The following day, using Fugene-6 (Roche diagnostics), 200 ng of the reporter construct and 4 ng of pRL-TK (Promega) as the internal standard for correction of transfection efficiency, per well were transfected. Twenty-four after the transfection, the cells were cultured on a medium containing 0.1, 1 and 10 ng/ml PMA. Twenty-four hours after the stimulation, the cells were solubilized, and luciferase activity was measured using PicaGene Dual SeaPansy System (Toyo Ink). The number of cases was n=2.

[5] = target: T1, EDG2 (Homo sapiens, UniProt Q92633); assay: Intracellular Ca2+ concentration (FLIPR tetra) in McA-RH7777 cells stably expressing EDG2; type: cell-based; design: Dainippon Pharmaceutical Co., Ltd. (cells); host or cells: McA-RH7777; conditions: LPA 0.3 μM, Ki16425 10^−8 to 10^−5 M added previously
Protocol: A forcible expression vector comprising an ORF sequence of human EDG2 [hEDG2-pcDNA3.1(+)] was purchased from UMR cDNA Resource Center. This plasmid was introduced into McA-RH7777 (Dainippon Pharmaceutical Co., Ltd.) using Lipofectamine LTX (Invitrogen), and the cells were cultured in a medium containing Geneticin for 14 to 20 days to acquire cells that stably express EDG2.
Next, an evaluation was made using FLIPR tetra (Molecular Devices) to confirm that stimulation with LPA raised intracellular Ca concentrations via the EDG2 expressed. That is, these cells were seeded to a 384-well plate, 0.03 to 10 μM LPA (Sigma) was added to each well, and it was confirmed that rises in intracellular Ca^2+ concentration occurred. LPA dose-dependently.

[6] = target: T1, EDG2; assay: IL6 gene expression in LPA-stimulated HFLS-OA treated with EDG2 antagonist; type: cell-based; design: OA patient-derived fibroblast-like synovial cells (HFLS-OA) were purchased from Cell application Co; host or cells: HFLS-OA (OA patient-derived fibroblast-like synovial cells); conditions: Ki16425 0, 0.3, 1, 3, 10 and 33 μM for 30 minutes, then 10 μM LPA, 2 hours, n=4
Protocol: Furthermore, the involvement of EDG2 in the LPA-induced inflammatory cytokine raising reaction in human OA synovial cells was analyzed using an antagonist against EDG2. […] As the EDG2 antagonist, Ki16425 (Sigma) was used. OA patient-derived fibroblast-like synovial cells (HFLS-OA) were purchased from Cell application Co. The HFLS-OA was cultured using the attached Synoviocyte growth medium. The number of passages for the cells used was 4 or 5. The HFLS-OA was seeded to a 24-well plate at a ratio of 1×10^5 cells/well, and cultured using the attached Synoviocyte growth medium until they became confluent. Twelve hours before performing LPA stimulation, the medium was replaced with Ham's F-12 (Invitrogen) medium containing 0.1% fatty acid free bovine serum albumin (Sigma). Twelve hours after the medium replacement, the cells were treated with Ki16425 (0, 0.3, 1, 3, 10 and 33 μM) for 30 minutes. Thereafter, the cells were stimulated with 10 μM LPA; 2 hours later, total RNA was extracted using ISOGEN (Nippon Gene), and the amount expressed of the IL6 gene was quantified by a method in accordance with Example 10 (n=4).

[7] = target: T2, EDG7 (Homo sapiens, UniProt Q9UBY5); conditions: no test described; cited from earlier work
T2 sequence (Q9UBY5 1-353): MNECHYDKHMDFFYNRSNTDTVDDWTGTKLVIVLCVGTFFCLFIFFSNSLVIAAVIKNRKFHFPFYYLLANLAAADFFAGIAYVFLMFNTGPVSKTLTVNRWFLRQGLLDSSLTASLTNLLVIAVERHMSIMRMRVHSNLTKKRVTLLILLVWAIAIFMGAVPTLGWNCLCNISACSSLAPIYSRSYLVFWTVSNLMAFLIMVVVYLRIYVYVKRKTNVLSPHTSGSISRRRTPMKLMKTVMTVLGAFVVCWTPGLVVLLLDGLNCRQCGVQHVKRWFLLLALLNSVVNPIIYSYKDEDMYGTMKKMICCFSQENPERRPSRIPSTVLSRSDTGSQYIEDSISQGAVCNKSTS

T1 sequence (Q92633 whole entry): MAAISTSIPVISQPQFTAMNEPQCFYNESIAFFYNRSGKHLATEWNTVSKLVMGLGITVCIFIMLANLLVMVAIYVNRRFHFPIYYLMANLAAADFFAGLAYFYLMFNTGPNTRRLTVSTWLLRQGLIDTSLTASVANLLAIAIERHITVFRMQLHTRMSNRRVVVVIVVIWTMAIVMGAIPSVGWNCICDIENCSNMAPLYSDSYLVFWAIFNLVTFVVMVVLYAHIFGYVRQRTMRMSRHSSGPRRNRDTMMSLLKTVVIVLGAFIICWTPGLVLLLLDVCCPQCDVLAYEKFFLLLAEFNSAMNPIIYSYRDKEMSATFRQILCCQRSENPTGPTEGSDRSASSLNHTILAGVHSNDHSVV

Molecule: siRNA against EDG2: siRNA used in EDG2 knockdown; sense GAAAUGAGCGCCACCUUUATT (SEQ ID NO 40), antisense UAAAGGUGGCGCUCAUUUCTT (SEQ ID NO 41) (chemistry not given here)
- amount expressed of the IL6 gene, which rises in response to LPA ([1]; siRNA 11 nM, 10 μM LPA, 2 hours): significantly suppressed
- amount of EDG2 expressed ([1]; siRNA final concentration 11 nM): significantly suppressed

Molecule: CCCCCCCCCCCCCC(=O)O[C@@H]1[C@@H](C)[C@@]2(O)[C@@H](C=C(CO)C[C@]3(O)C(=O)C(C)=C[C@@H]23)[C@@H]2C(C)(C)[C@]12OC(C)=O [PMA, phorbol 12-myristate 13-acetate]
- amount expressed of the EDG2 gene relative to G3PDH [2]: rose over time
- luciferase activity of i-EDG2-09 reporter constructs [3]: rose significantly
- luciferase activity (AP-1 binding motif reporter) [4]: rose PMA dose-dependently

- suppression of elevation of intracellular Ca2+ concentration by LPA stimulation [5]: suppressed dose-dependently
- suppression of the rise in the expression of the IL6 gene by LPA [6]: dose-dependently
Molecule: Cc1noc(-c2ccc(CSCCC(=O)O)cc2)c1NC(=O)OC(C)c1ccccc1Cl (centres unmarked) [Ki16425]
- antagonist activity against EDG7 [7]: antagonist activity
